Measurements: patent US8344159B2, “Carvedilol phosphate sesquihydrate” (priority 2006, dated 2013)
Read-outs that look alike come from different tables or passages of the source.

Assays:
[1] = compared to the free base of carvedilol; disclosed in WO 2004/002419; cited from earlier work
[2] = stability compared to carvedilol base; assay type: physicochemical; details: color of final product, phosphate sesquihydrate
[3] = solubility compared to carvedilol base

In the case of `COc1ccccc1OCCNCC(O)COc1cccc2[nH]c3ccccc3c12.O=P(O)(O)O` (stereo not drawn) [carvedilol dihydrogen phosphate, Carvedilol dihydrogen phosphate], the solubility [1] is listed as “higher solubility when compared to the free base of carvedilol”.

In the case of `COc1ccccc1OCCNCC(O)COc1cccc2[nH]c3ccccc3c12.O=P(O)(O)O` (stereo not drawn) [carvedilol dihydrogen phosphate sesquihydrate], the stability [2] is reported as “More stable as compared to carvedilol base” and the solubility [3] is reported as “Better solubility as compared to carvedilol base”.
